Measured values as given in the supplement of paper PMC11061612.

What was measured:
[1] = system: SW1463 (Colorectal Carcinoma); assay: combination Emax (second highest fraction inhibited in the dose matrix, 72 h); higher = more inhibition; extreme values may be limits of the assay
Method in brief: (§1)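 Bliss excess equals the observed combination effect minus the expected value EA + EB − EA·EB, where EA and EB are the effects of each agent alone. Combination Emax is the second-highest inhibition within the matrix. Inhibition was scaled from CellTiter-Glo 2.0 luminescence, with 0 set by vehicle wells and 1 by blank wells, after 72 hours of two-drug dosing of cells plated in 1536-well plates.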

[2] = system: NCI-H1048 (Small Cell Lung Carcinoma); assay: as above
Method in brief: as §1

[3] = system: ATN-1 (T-Lymphoblastic Leukemia); assay: as above
Method in brief: as §1

[4] = system: C2BBe1 (Colorectal Carcinoma); assay: as above
Method in brief: as §1

[5] = system: SCC90 (Head and Neck Carcinoma); assay: as above
Method in brief: as §1

[6] = system: L-363 (Plasma Cell Myeloma); assay: as above
Method in brief: as §1

[7] = system: RS4-11 (B-Lymphoblastic Leukemia); assay: as above
Method in brief: as §1

[8] = system: HT-1197 (Bladder Carcinoma); assay: as above
Method in brief: as §1

[9] = system: SBC-5 (Small Cell Lung Carcinoma); assay: as above
Method in brief: as §1

GCIY (Gastric Carcinoma) = assay: as above
Method in brief: as §1

[10] = system: NCI-H2009 (Lung Adenocarcinoma); assay: as above
Method in brief: as §1

[11] = system: TK (B-Cell Non-Hodgkin's Lymphoma); assay: as above
Method in brief: as §1

[12] = system: TOV-21G (Ovarian Carcinoma); assay: Bliss excess, mean over the matrix (fraction); higher = more synergy
Method in brief: as §1

[13] = system: JJN-3 (Plasma Cell Myeloma); assay: as above
Method in brief: as §1

[14] = system: SUP-HD1 (Hodgkin's Lymphoma); assay: as above
Method in brief: as §1

[15] = system: RS4-11 (B-Lymphoblastic Leukemia); assay: as above
Method in brief: as §1

[16] = system: HT-1197 (Bladder Carcinoma); assay: as above
Method in brief: as §1

[17] = system: MDA-MB-175-VII (Breast Carcinoma); assay: as above
Method in brief: as §1

[18] = system: NCI-H1648 (Lung Adenocarcinoma); assay: as above
Method in brief: as §1

[19] = system: NCI-H1975 (Lung Adenocarcinoma); assay: as above
Method in brief: as §1

SMILES | combination Emax [1] | combination Emax [2] | combination Emax [3] | combination Emax [4] | combination Emax [5] | combination Emax [6] | combination Emax [7] | combination Emax [8] | combination Emax [9] | combination Emax (GCIY (Gastric Carcinoma)) | combination Emax [10] | combination Emax [11] | Bliss excess [12] | Bliss excess [13] | Bliss excess [14] | Bliss excess [15] | Bliss excess [16] | Bliss excess [17] | Bliss excess [18] | Bliss excess [19]
CC1(C)CCC(CN2CCN(c3ccc(C(=O)NS(=O)(=O)c4ccc(NCC5CCOCC5)c([N+](=O)[O-])c4)c(Oc4cnc5[nH]ccc5c4)c3)CC2)=C(c2ccc(Cl)cc2)C1 [Venetoclax] + C=CCn1c(=O)c2cnc(Nc3ccc(N4CCN(C)CC4)cc3)nc2n1-c1cccc(C(C)(C)O)n1 [AZD1775] (first compound max 1 µM, partner max 1 µM) | 0.36 | 0.92 | 0.977 | 0.39 | 0.838 | 1 | 1 | 0.487 | 0.459 | 0.824 | 0.637 | 1 | -0.0261 | -0.0187 | -0.0256 | 0.0174 | -0.001 | -0.0111 | -0.0451 | -0.0143
CC1(C)CCC(CN2CCN(c3ccc(C(=O)NS(=O)(=O)c4ccc(NCC5CCOCC5)c([N+](=O)[O-])c4)c(Oc4cnc5[nH]ccc5c4)c3)CC2)=C(c2ccc(Cl)cc2)C1 [Venetoclax] + CCN(CCO)CCCOc1ccc2c(Nc3cc(CC(=O)Nc4cccc(F)c4)[nH]n3)ncnc2c1 [AZD2811] (first compound max 1 µM, 7x7, partner max 1 µM) | 0.157 | 0.73 | 0.866 | 0.214 | 0.552 | 0.865 | 1 | 0.221 | 0.266 | 0.386 | 0.236 | 1 | 0.0149 | 0.169 | -0.0195 | 0.003 | -0.0204 | -0.0228 | -0.0235 | -0.0555
CC1(C)CCC(CN2CCN(c3ccc(C(=O)NS(=O)(=O)c4ccc(NCC5CCOCC5)c([N+](=O)[O-])c4)c(Oc4cnc5[nH]ccc5c4)c3)CC2)=C(c2ccc(Cl)cc2)C1 [Venetoclax] + CN(C)CCCOc1ccc(-c2ccc3ncc4c(c3c2)n(C2CCOCC2)c(=O)n4C)cn1 [AZD0156] (first compound max 1 µM, 7x7, partner max 1 µM) | 0.0973 | 0.178 | 0.402 | 0.253 | 0.324 | 0.867 | 1 | 0.198 | 0.163 | 0.403 | 0.273 | 0.969 | -0.0322 | 0.0008 | -0.0962 | -0.0088 | -0.0266 | -0.0319 | -0.0685 | -0.0611
CC1(C)CCC(CN2CCN(c3ccc(C(=O)NS(=O)(=O)c4ccc(NCC5CCOCC5)c([N+](=O)[O-])c4)c(Oc4cnc5[nH]ccc5c4)c3)CC2)=C(c2ccc(Cl)cc2)C1 [Venetoclax] + COc1cc(Nc2ncc3c(n2)-c2ccc(Cl)cc2C(c2c(F)cccc2OC)=NC3)ccc1C(=O)O [Alisertib] (first compound max 1 µM, 7x7, partner max 10 µM) | 0.656 | 0.948 | 0.901 | 0.516 | 0.687 | 0.772 | 1 | 0.163 | 0.615 | 0.94 | 0.5 | 1 | -0.006 | 0.45 | 0.0776 | 0.0168 | -0.0358 | -0.0221 | 0.0579 | -0.0453
CC1(C)CCC(CN2CCN(c3ccc(C(=O)NS(=O)(=O)c4ccc(NCC5CCOCC5)c([N+](=O)[O-])c4)c(Oc4cnc5[nH]ccc5c4)c3)CC2)=C(c2ccc(Cl)cc2)C1 [Venetoclax] + C[C@@H]1COCCN1C2=NC(=NC(=C2)C3(CC3)[S@](=N)(=O)C)C4=C5C=CNC5=NC=C4 [AZD6738] (first compound max 1 µM, 7x7, partner max 10 µM) | 0.411 | 0.7 | 0.973 | 0.461 | 0.373 | 0.897 | 1 | 0.441 | 0.792 | 0.879 | 0.415 | 1 | -0.0256 | 0.067 | -0.0605 | 0.0104 | -0.0033 | -0.0433 | -0.0262 | -0.0391
CC1(C)CCC(CN2CCN(c3ccc(C(=O)NS(=O)(=O)c4ccc(NCC5CCOCC5)c([N+](=O)[O-])c4)c(Oc4cnc5[nH]ccc5c4)c3)CC2)=C(c2ccc(Cl)cc2)C1 [Venetoclax] + C[C@@H](Nc1cc(F)cc(F)c1)c1cc(C(=O)N(C)C)cc2c(=O)cc(N3CCOCC3)oc12 [AZD8186] (first compound max 1 µM, 7x7, partner max 3 µM) | 0.152 | 0.504 | 0.616 | 0.318 | 0.29 | 0.805 | 1 | 0.126 | 0.163 | 0.641 | 0.445 | 1 | -0.0271 | -0.0092 | -0.025 | -0.0083 | -0.0785 | -0.0321 | -0.0603 | -0.0203
CC1(C)CCC(CN2CCN(c3ccc(C(=O)NS(=O)(=O)c4ccc(NCC5CCOCC5)c([N+](=O)[O-])c4)c(Oc4cnc5[nH]ccc5c4)c3)CC2)=C(c2ccc(Cl)cc2)C1 [Venetoclax] + Cc1cc2ncnn2cc1Nc1ncc2c(n1)n(C1CCOCC1)c(=O)n2C [AZD7648] (first compound max 1 µM, 7x7, partner max 10 µM) | 0.0854 | 0.59 | 0.47 | 0.278 | 0.351 | 0.867 | 1 | 0.214 | 0.212 | 0.558 | 0.12 | 0.967 | -0.002 | 0.0741 | -0.0659 | -0.0149 | -0.0208 | -0.0444 | -0.0431 | -0.0114
CC1(C)CCC(CN2CCN(c3ccc(C(=O)NS(=O)(=O)c4ccc(NCC5CCOCC5)c([N+](=O)[O-])c4)c(Oc4cnc5[nH]ccc5c4)c3)CC2)=C(c2ccc(Cl)cc2)C1 [Venetoclax] + Cn1cnc2c(F)c(Nc3ccc(Br)cc3Cl)c(C(=O)NOCCO)cc21 [Selumetinib] (first compound max 1 µM, 7x7, partner max 3 µM) | 0.352 | 0.153 | 0.137 | 0.329 | 0.726 | 0.833 | 1 | 0.254 | 0.18 | 0.514 | 0.184 | 0.981 | 0.0133 | 0.0473 | -0.039 | 0.0052 | -0.0072 | -0.0556 | -0.0379 | -0.0631
